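Step 1: Grow cells in 96-well plates. Step 2: Expose to compound for 48 hours at 5 concentrations. Step 3: Interpolate endpoints linearly; if unreached, use highest concentration. GI50 = concentration required for 50% inhibition of growth.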 Activity calls are given as the source filed them. Rule as the data show it: active = GI50 up to about 1.1 µM and inactive = higher. Where a SMILES comes first, the peptide text is derived from it. The star is where a group is joined. Fmoc = O=C(OCC1c2ccccc2-c2ccccc21)*; OBn = c1ccc(CO*)cc1; tBu = CC(C)(C)*
Tests used:
Assay in all cases: growth of human tumour cells (NCI), 48 h
[1] = tested on: RPMI-8226
[2] = tested on: DU-145
[3] = tested on: EKVX
[4] = tested on: MDA-MB-231
[5] = tested on: OVCAR-8
[6] = tested on: CCRF-CEM
[7] = tested on: HOP-92
[8] = tested on: SK-MEL-2
[9] = tested on: MCF7
[10] = tested on: NCI-H522
[11] = tested on: SNB-75
[12] = tested on: HT-29
[13] = tested on: Malme-3M
[14] = tested on: HCC 2998
[15] = tested on: HOP-62
[16] = tested on: T47D
[17] = tested on: A498
[18] = tested on: M14
[19] = tested on: UACC-62
[20] = tested on: KM12

Measured: GI50

CNC(=O)N1CCN(C(=O)NC)CCN(C(=O)NC)CC1
inactive: [1] > 100 µM | [2] > 100 µM | [3] > 100 µM | [4] > 100 µM | [5] > 100 µM | [6] > 100 µM | [7] > 100 µM | [8] > 100 µM | [9] > 100 µM | [10] > 100 µM | [11] > 100 µM | [12] > 100 µM | [13] > 100 µM | [14] > 100 µM | [15] > 100 µM | [16] > 100 µM | [17] > 100 µM | [18] > 100 µM | [19] > 100 µM

CCOC(=O)c1c(N2CCCC2)[nH]c(=O)c(C(c2ccco2)c2c(O)c(C(=O)OCC)c(N3CCCC3)[nH]c2=O)c1O
inactive: [1] 84.3 µM | [2] > 100 µM | [3] > 100 µM | [4] > 100 µM | [5] 92.9 µM | [6] > 100 µM | [7] > 100 µM | [8] > 100 µM | [9] > 100 µM | [10] 84.9 µM | [11] 23.4 µM | [20] > 100 µM | [12] > 100 µM | [13] > 100 µM | [14] > 100 µM | [15] 50.6 µM | [16] 19.4 µM | [17] > 100 µM | [18] > 100 µM | [19] > 100 µM

O=C(O)CCCCn1cnc2c(S)ncnc21
inactive: [1] > 100 µM | [2] > 100 µM | [3] > 100 µM | [4] > 100 µM | [5] > 100 µM | [6] 4.33 µM | [7] > 100 µM | [8] > 100 µM | [9] > 100 µM | [10] > 100 µM | [11] > 100 µM | [20] > 100 µM | [12] > 100 µM | [13] > 100 µM | [14] > 100 µM | [15] > 100 µM | [16] > 100 µM | [17] > 100 µM | [18] > 100 µM | [19] > 100 µM

Cc1occc1C(=S)Nc1ccc(Cl)c(/C=N/OC(C)C)c1
inactive: [1] 20 µM | [2] 24 µM | [3] 23 µM | [4] 16.4 µM | [5] 22.8 µM | [6] 18.1 µM | [7] 16.1 µM | [8] 19.2 µM | [9] 19.1 µM | [10] 12.7 µM | [11] 25.1 µM | [20] 20 µM | [12] 19.3 µM | [13] 19.8 µM | [14] 26.5 µM | [15] 25.2 µM | [16] 12.1 µM | [17] 19.2 µM | [18] 23.3 µM | [19] 14.5 µM

O=C1OC(C2OC(=O)c3cc(O)c(O)c(O)c3-c3c(O)c(O)c4oc(=O)c5c(c(O)c(O)c6oc(=O)c3c4c65)-c3c(cc(O)c(O)c3O)C(=O)OCC2O)C2OC(=O)c3c(c(O)c(O)c(O)c3[C@H]2O)-c2c1cc(O)c(O)c2O (stereo partly drawn)
inactive: [1] 28.5 µM | [2] 30.3 µM | [3] 13 µM | [4] 13.5 µM | [5] 20.2 µM | [6] 10.9 µM | [7] 18.3 µM | [8] 31.6 µM | [9] 6.05 µM | [10] 17.1 µM | [11] 16.9 µM | [20] 15.2 µM | [12] 13.3 µM | [13] 31.6 µM | [14] 43.6 µM | [15] 33.5 µM | [16] 26.7 µM | [17] > 100 µM | [18] 16.4 µM | [19] 22.9 µM

c1ccc(SCCc2ccncc2)cc1
inactive: [1] 20.5 µM | [2] > 100 µM | [3] 46 µM | [4] > 100 µM | [5] > 100 µM | [6] 31.3 µM | [7] 45.7 µM | [8] > 100 µM | [9] 91.4 µM | [10] 31 µM | [11] > 100 µM | [20] 78.7 µM | [12] > 100 µM | [13] > 100 µM | [14] > 100 µM | [15] > 100 µM | [16] 52.1 µM | [17] 70 µM | [18] 75 µM | [19] > 100 µM

COc1cc(-c2[o+]c3cc(O)cc(OC4OC(CO)C(O)C(O)C4O)c3cc2OC2OC(CO)C(O)C(O)C2O)cc(OC)c1O (stereo not drawn)
inactive: [1] > 100 µM | [2] > 100 µM | [3] > 100 µM | [4] > 100 µM | [5] > 100 µM | [6] 70.1 µM | [7] > 100 µM | [8] > 100 µM | [9] > 100 µM | [10] > 100 µM | [11] > 100 µM | [20] > 100 µM | [12] > 100 µM | [13] > 100 µM | [14] > 100 µM | [15] > 100 µM | [16] > 100 µM | [17] > 100 µM | [18] > 100 µM | [19] > 100 µM

CC(OC(C)(C)C)C(NC(=O)OCC1c2ccccc2-c2ccccc21)C(=O)NC(Cc1ccccc1)C(=O)OCc1ccccc1 (stereo not drawn) (Fmoc-Thr(tBu)-Phe-OBn; configuration not given here)
inactive: [1] > 71.8 µM | [2] > 100 µM | [3] > 100 µM | [4] > 48.4 µM | [5] > 100 µM | [6] > 100 µM | [7] > 21.2 µM | [8] > 100 µM | [9] > 100 µM | [10] > 100 µM | [11] > 100 µM | [20] > 100 µM | [12] > 100 µM | [13] > 100 µM | [14] > 100 µM | [15] > 93.8 µM | [16] > 76.7 µM | [17] > 100 µM | [18] > 100 µM | [19] > 100 µM

COc1cccc(C2c3cc4c(cc3OC(Nc3ccccc3)C2C)OCO4)c1OC (stereo not drawn)
inactive: [1] 1.64 µM | [2] 7.08 µM | [3] 19.8 µM | [4] 13.7 µM | [5] 16.3 µM | [6] 2.88 µM | [7] 5.43 µM | [8] 4.55 µM | [9] 6.89 µM | [10] 3.36 µM | [11] 20.5 µM | [20] 4.02 µM | [12] 11.2 µM | [13] 6.31 µM | [14] 74.1 µM | [15] 15 µM | [16] 5.14 µM | [17] 11.5 µM | [18] 67.6 µM | [19] 9.55 µM

CC[C@@H]1CC[C@@H]2[C@H](CC[C@]3(C)[C@@H](OC(C)=O)CC[C@@H]23)[C@H]1C(=O)OC
inactive: [1] 19.6 µM | [2] 27.4 µM | [3] 25.2 µM | [4] 20.6 µM | [5] 27.9 µM | [6] 22.1 µM | [7] 13.4 µM | [8] 20.1 µM | [9] 25 µM | [10] 27.2 µM | [11] 22.3 µM | [20] 22.5 µM | [12] 25 µM | [13] 17.3 µM | [14] 97.9 µM | [15] 24.9 µM | [16] 21.8 µM | [17] > 100 µM | [18] 19.6 µM | [19] 20.1 µM

Cc1ccc(/N=N\c2c(O)c(S(=O)(=O)O)cc3cc(S(=O)(=O)O)ccc23)c(C)c1
inactive: [1] > 100 µM | [2] > 100 µM | [3] > 100 µM | [4] > 100 µM | [5] > 100 µM | [6] > 100 µM | [7] > 100 µM | [8] > 100 µM | [9] > 100 µM | [10] > 100 µM | [11] > 100 µM | [20] > 100 µM | [12] > 100 µM | [13] > 100 µM | [14] > 100 µM | [15] > 100 µM | [16] > 100 µM | [17] > 100 µM | [18] > 100 µM | [19] > 100 µM

CC(=O)O[C@@H]1[C@H]2O[C@H]2[C@H]2O[C@@]2(COC(=O)c2ccccc2)[C@H]1OC(C)=O
inactive: [1] > 100 µM | [2] 73.5 µM | [3] > 100 µM | [4] > 100 µM | [5] 71.9 µM | [6] > 100 µM | [7] > 100 µM | [8] > 100 µM | [9] > 100 µM | [10] > 100 µM | [11] > 100 µM | [20] > 100 µM | [12] > 100 µM | [13] > 100 µM | [14] > 100 µM | [16] > 100 µM | [17] > 100 µM | [18] > 100 µM | [19] > 100 µM

Oc1c([Si](c2ccccc2)(c2ccccc2)c2ccccc2)cc2ccccc2c1-c1c(O)c([Si](c2ccccc2)(c2ccccc2)c2ccccc2)cc2ccccc12
inactive: [1] > 100 µM | [2] > 100 µM | [3] > 100 µM | [4] > 100 µM | [5] > 100 µM | [6] > 100 µM | [7] > 100 µM | [8] > 100 µM | [9] > 100 µM | [10] > 100 µM | [11] > 100 µM | [20] > 100 µM | [12] > 100 µM | [13] > 100 µM | [14] > 100 µM | [15] 98.9 µM | [16] > 100 µM | [17] > 100 µM | [18] > 100 µM | [19] > 100 µM

— ChEMBL document CHEMBL1201862, “PubChem BioAssay data set” (2004)
